The numbers were not newly measured in US8133194B2 (Henry Ford Health System, priority 2006, dated 2012), which cites them from elsewhere.

For series [1] the following is noted: ICU patients.
For series [2] the following is noted: as stated for pre-filter fluid pH.
The conditions of series [3]: under normal conditions, equal to the renal plasma flow.

On to `O=C(O)CC(O)(CC(=O)O)C(=O)O` [Citrate], for which the “K(b) liver clearance of citrate” value in series [1] was 0.2 to 0.5 L/min. Moreover, in series [2], the pKa3 is reported as 6.3.

Consider `Nc1ccc(C(=O)NCC(=O)O)cc1` [PAH, para-amino-hippuric acid], for which the PAH clearance result in series [3] is recorded as “up to 0.6 L/minute”.
